Results as given in patent publication US7345091B2, “Carotenoid ether analogs or derivatives for the inhibition and amelioration of disease” (Cardax Pharmaceuticals, Inc., priority 2002, dated 2008).

Columns and labels:
C3H/10T1/2 cells = test: Assembly of Cx43 into plaques (immunofluorescent staining); assay type: cell-based, mouse; settings: 1×10^-8 M in tetrahydrofuran, 4 days
Procedure: In this experiment expression and assembly of Cx43 into plaques was assessed by immunofluorescent staining. Procedures were essentially as described in Zhang (1992). Briefly, confluent cultures of C3H/10T1/2 cells were grown on Permanox plastic 4-chamber slides (Nalge Nunc International, Naperville, Ill.) and treated for 4 days with: (1) the disodium salt disuccinate astaxanthin derivative XVI (statistical mixture of stereoisomers) dissolved in a 1:2 EtOH/H2O formulation; (2) the retinoid TTNPB at 1×10^−8 M in tetrahydrofuran as a positive control; or (3) 1:2 EtOH/H2O as a solvent control. Cells were fixed with −20° C. methanol overnight, washed in buffer, blocked in 1% bovine serum albumin (Sigma, St, Louis, Mo.) in PBS, and incubated with the rabbit polyclonal anti-Cx43 antibody (Zymed, San Francisco, Calif.) as in (2) above and detected with Alexa568 conjugated anti-rabbit secondary (Molecular Probes, Eugene, Oreg.). Slides were illuminated with […] light and images were acquired at a wavelength of 600 nm using the Zeiss Axioscope light microscope and a Roper Scientific cooled CCD camera. […] In cultures treated with solvent as control, such immunoreactive plaques were infrequent and were smaller than those detected in cells treated with the statistical mixture of stereoisomers of the disodium salt disuccinate astaxanthin derivative XVI or with TTNPB as positive control. […]

[1] = system: connexin 43 protein expression; test: Induction of connexin 43 protein expression (Western blot, 96 hours); assay type: cell-based, mouse; settings: 10^-8 M, 96-hour time point
Procedure: In brief, mouse embryonic fibroblast CH3/10T^1/2 cells were treated with the following formulations in a 4 mL cell culture system with media containing 2% calf serum: • 1. TTNPB [p-(E)-2-(5,6,7,8-tetrahydro-5,5,8,8-tetramethyl-2-napthyl) propenyl benzoic acid] 10^−8 M in acetone [positive control for connexin 43 upregulation (4 μL in 4 mL] • 2. Disodium salt disuccinate astaxanthin derivative XVI/H2O at 10^−5 M (40 μl in 4 mL) • 3. Disodium salt disuccinate astaxanthin derivative XVI/H2O at 10^−6 M (4 μl in 4 mL) • 4. Disodium salt disuccinate astaxanthin derivative XVI/H2O at 10^−7 M (1:10 dilution and 4 μl in 4 mL) • 5. Disodium salt disuccinate astaxanthin derivative XVI H2O/ethanol [EtOH] formulation at 10^-5 M (40 μl in 4 mL) • 6. Disodium salt disuccinate astaxanthin derivative XVI H2O/EtOH formulation at 10^−6 M (4 μl in 4 mL) • 7. Sterile H2O control (40 μl in 4 mL) • 8. Sterile H2O/EtOH control (20 μL EtOH, 20 μL H2O in 4 mL) • 9. Media control (4 mL)
Cells were harvested after 96 hours incubation with test compounds and control solutions. All media solutions were identical in color, however after treatment with the disodium salt disuccinate astaxanthin derivative XVI at both 10^−5 dilutions, the color subjectively changed to an orange-red color. Cells treated with TTNPB appeared striated with light microscopy, evidence of differentiation to myocytes, an expected result in this cell culture system. After harvest and pelleting of cells, tubes containing both 10^−5 disodium salt disuccinate astaxanthin derivative XVI solutions were bright red; both 10^−6 dilution tubes were a pink color. As documented previously for other colored carotenoids, this was subjective evidence for cellular uptake of the test compounds.
Cells were then lysed, and 50 μg of each protein was electrophoresed on a 10% polyacrylamide gel. The gel was then transferred to a nitrocellulose filter. Total protein was assayed with Coomassie blue staining (FIG. 29; lanes 6, 7, and 9 were smeared secondary to gel transfer, and were not included in the quantitative comparison [FIG. 31)]. […]

C/C(=C\c1ccc(C(=O)O)cc1)c1ccc2c(c1)C(C)(C)CCC2(C)C [TTNPB, p-(E)-2-(5,6,7,8-tetrahydro-5,5,8,8-tetramethyl-2-napthyl) propenyl benzoic acid, reference compound]
assembly of immunoreactive Cx43 into plaques (C3H/10T1/2 cells): exhibited assembly of immunoreactive Cx43 into plaques | induction of connexin 43 expression [1]: effective at inducing connexin 43 expression
